This is an account of results in ChEMBL document CHEMBL1126901, “2-Thio derivatives of dUrd and 5-fluoro-dUrd and their 5'-monophosphates: synthesis, interaction with tumor thymidylate synthase, and in vitro antitumor activity” (J Med Chem, 1993).

In experiment [1] the test system is NIH3T3. Put plainly: Inhibitory concentration of compound rwas calculated on 3T3 cells by [3H]Thd incorporation. The class given is functional, cell-based, Mus musculus.
The subject of experiment [2] is NIH3T3. Put plainly: Inhibitory concentration of compound was calculated on 3T3 cells by [14C]Leu incorporation. The class given is functional, cell-based, Mus musculus.
The subject of experiment [3] is NIH3T3. Put plainly: Inhibitory concentration of compound was calculated on 3T3 cells by using clonal assay. The class given is functional, cell-based, Mus musculus.
In experiment [4] the test system is NIH3T3. Put plainly: Inhibitory concentration was calculated on 3T3 cells by using growth assay. The class given is functional, cell-based, Mus musculus.
The test system of experiment [5] is L5178Y. Put plainly: Inhibitory concentration of compound was calculated on L5178Y cells by [14C]Leu incorporation. The class given is functional, cell-based, Mus musculus.
Experiment [6] relates to L5178Y. Put plainly: Inhibitory concentration of compound was calculated on L5178Y cells by using clonal assay. The class given is functional, cell-based, Mus musculus.
For experiment [7], the system named is L5178Y. As to the kind of experiment: Inhibitory concentration of compound was calculated on L5178Y cells by using growth assay. The class given is functional, cell-based, Mus musculus.
Experiment [8] relates to L5178Y. As to the kind of experiment: Inhibitory concentration of compound rwas calculated on L5178Y cells by [3H]Thd incorporation. The class given is functional, cell-based, Mus musculus.
In experiment [9] the target is T1, Thymidylate synthase (Mus musculus, UniProt P07607). Put plainly: Apparent Ki value was measured by competitive inhibition of Thymidylate Synthase from Ehrlich Carcinoma cells of mouse. The class given is cell-based.
T1 sequence (P07607 whole entry): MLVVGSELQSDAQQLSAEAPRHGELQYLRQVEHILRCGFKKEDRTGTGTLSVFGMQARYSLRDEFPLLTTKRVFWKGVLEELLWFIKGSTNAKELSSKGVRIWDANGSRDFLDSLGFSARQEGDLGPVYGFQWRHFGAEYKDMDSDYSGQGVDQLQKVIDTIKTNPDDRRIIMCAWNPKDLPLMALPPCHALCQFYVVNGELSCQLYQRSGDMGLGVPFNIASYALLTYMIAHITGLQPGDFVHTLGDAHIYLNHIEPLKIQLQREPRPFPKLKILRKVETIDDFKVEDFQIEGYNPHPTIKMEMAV
Experiment [10] addresses T1, Thymidylate synthase. Put plainly: Apparent Ki value was measured by competitive inhibition of Thymidylate Synthase from L1210 cells of mouse. Type of experiment: cell-based.
Experiment [11] addresses Thymidylate synthase (Mus musculus) (UniProt P07607).
Description: The time dependent reaction (k2'(1/min)) of compound was measured for inactivation of L1210 Thymidylate Synthase
The target is the same in experiment [12]. The source holds these as a separate data set.
Description: The time dependent reaction (k2''(1/min)) of compound was measured for inactivation of Ehrlich Carcinoma Thymidylate Synthases
For experiment [13] the target is unchanged. This is another data set of the same source.
Description: The time dependent reaction (k2''(1/min)) of compound was measured for inactivation of Ehrlich Carcinoma Thymidylate Synthase
Experiment [14] has the same target. The source holds these as a separate data set.
Description: The time dependent reaction (k2''(1/min)) of compound was measured for inactivation of L1210 Thymidylate Synthase
Experiment [15] has the same target. The source holds these as a separate data set.
Description: The reaction rate(Ki'') of compound was measured for inactivation of Ehrlich Carcinoma Thymidylate Synthases
For experiment [16] the target is unchanged. The source holds these as a separate data set.
Description: The reaction rate(Ki'') of compound was measured for inactivation of L1210 Thymidylate Synthase
Experiment [17] has the same target. This is another data set of the same source.
Description: The reaction rate(Ki') of compound was measured for inactivation of Ehrlich Carcinoma Thymidylate Synthases
Experiment [18] shares this target. The source holds these as a separate data set.
Description: The reaction rate(Ki') of compound was measured for inactivation of L1210 Thymidylate Synthase
The target is the same in experiment [19]. This is another data set of the same source.
Description: The reaction rate(Ki'') of compound was measured for inactivation of L1210 Thymidylate Synthases
Experiment [20] shares this target. The source holds these as a separate data set.
Description: The time dependent reaction (k2''(1/min)) of compound was measured for inactivation of L1210 Thymidylate Synthases
For experiment [21] the target is unchanged. The source holds these as a separate data set.
Description: The time dependent reaction (k2'(1/min)) of compound was measured for inactivation of Ehrlich Carcinoma Thymidylate Synthases
Experiment [22] shares this target. This is another data set of the same source.
Description: The time dependent reaction (k2'(1/min)) of compound was measured for inactivation of L1210 Thymidylate Synthases
Experiment [23] shares this target. The source holds these as a separate data set.
Description: The reaction rate(Ki') of compound was measured for inactivation of L1210 Thymidylate Synthases

Sequence of Thymidylate synthase (Mus musculus) (P07607 whole entry, looked up): as the sequence (P07607 whole entry) above

As a reminder, the IC50 is the concentration at which inhibition is half-maximal. `O=c1[nH]c(=O)n([C@H]2C[C@H](O)[C@@H](CO)O2)cc1F` (stereo in doubt) [FLOXURIDINE]: the IC50 in the experiment on NIH3T3 [1] (nih3t3) is 0.5 µM; with NIH3T3 [2] (nih3t3), 3.2 µM; with NIH3T3 [3] (nih3t3), 0.6 µM; in the experiment on NIH3T3 [4] (nih3t3), 1 µM; in the experiment with L5178Y [5] (l5178y) it was 0.009 µM; in the experiment with L5178Y [6] (l5178y), 0.02 µM. Further, the IC50 was 0.025 µM in the experiment on L5178Y [7] (l5178y) and 0.015 µM in the experiment with L5178Y [8] (l5178y).
With `O=c1[nH]c(=O)n([C@H]2C[C@H](O)[C@@H](CO)O2)cc1F` (stereo in doubt; 22) [FLOXURIDINE], the IC50 with NIH3T3 [1] (nih3t3) is 60 µM; in the experiment on NIH3T3 [2] (nih3t3), 250 µM; with NIH3T3 [3] (nih3t3) it was 60 µM; in the experiment with NIH3T3 [4] (nih3t3) it was 150 µM; in the experiment with L5178Y [5] (l5178y) it was 2 µM; in the experiment on L5178Y [6] (l5178y), 5 µM. Moreover, the results for the IC50 in the experiment with L5178Y [7] (l5178y) and in the experiment with L5178Y [8] (l5178y) were 5 µM and 4 µM, respectively.
In the case of `O=c1[nH]c(=S)n([C@@H]2C[C@H](O)[C@@H](CO)O2)cc1F`, the IC50 was 100 µM in the experiment on NIH3T3 [1] (Mus musculus, NIH3T3); 2000 µM in the experiment on NIH3T3 [2] (Mus musculus, NIH3T3); 500 µM with NIH3T3 [3] (Mus musculus, NIH3T3); 400 µM with NIH3T3 [4] (Mus musculus, NIH3T3); 10 µM in the experiment with L5178Y [5] (Mus musculus, L5178Y); 20 µM in the experiment with L5178Y [6] (Mus musculus, L5178Y). In addition, the IC50 is 25 µM in the experiment on L5178Y [7] (Mus musculus, L5178Y) and 10 µM in the experiment on L5178Y [8] (Mus musculus, L5178Y).
Take `O=c1[nH]c(=S)n(C2C[C@@H](OP(=O)(O)O)[C@@H](COP(=O)(O)O)O2)cc1F` (stereo not given in full): the Ki on Thymidylate synthase [9] is 0.14 µM; on Thymidylate synthase [10] it was 0.07 µM. Further, the k2' in [11] came to 0.12 min⁻¹; in experiment [12] it was 0.36 min⁻¹. Further, the figures for the k2'' in [13] and in experiment [14] were 0.06 min⁻¹ and 0.02 min⁻¹, respectively. Also, the Ki'' in experiment [15] came out at 0.049 µM; in [16] it was 0.046 µM. Further, the Ki' in experiment [17] came out at 0.079 µM; in [18], 0.041 µM.
As to `O=c1[nH]c(=S)n([C@H]2C[C@H](O)[C@@H](CO)O2)cc1F`, the IC50 in the experiment with NIH3T3 [1] (Mus musculus, NIH3T3) was 4 µM; in the experiment with NIH3T3 [2] (Mus musculus, NIH3T3), 5 µM; in the experiment with NIH3T3 [3] (Mus musculus, NIH3T3) it was 7 µM; in the experiment with NIH3T3 [4] (Mus musculus, NIH3T3), 4 µM; with L5178Y [5] (Mus musculus, L5178Y), 1 µM; with L5178Y [6] (Mus musculus, L5178Y), 4.5 µM. The IC50 with L5178Y [7] (Mus musculus, L5178Y) is 2 µM; in the experiment with L5178Y [8] (Mus musculus, L5178Y), 1.4 µM.
Regarding `O=c1[nH]c(=O)n([C@H]2C[C@H](O)[C@@H](COP(=O)(O)O)O2)cc1F`, the Ki'' is 0.02 µM in experiment [19] and 0.071 µM in [15]. The k2' in [12] turned out to be 0.18 min⁻¹; in experiment [20], 0.17 min⁻¹. Moreover, the values for the k2'' in [21] and in experiment [22] were 0.17 min⁻¹ and 0.12 min⁻¹, respectively. The figures for the Ki' in [17] and in experiment [23] were 0.0055 µM and 0.0018 µM, respectively.
